Assay: Biodistribution of the nano-emulsion of Example 1.1 (radioactivity and fluorescence per organ)
Type: in vivo
Protocol: In the following examples, the radioactivity was counted with the TRiCarb Counter (Ref: Packard, Liquid Scintillation Analyzers; Models 2200CA).
Fluobeam 700 (Fluoptics) is the apparatus with which the whole of the organs from the biodistribution were analyzed in fluorescence as well as the one with which the biodistribution kinetics of the nano-emulsions were established in vivo. This imaging system allows viewing of the fluorescence in spectral bands from 700 to 850 nm for a 650 nm excitation. The apparatus consists of an electric case containing the laser of class 3B, its power supply and an optical head containing the CCD camera.
The nano-emulsions of Example 1 were injected into FVB female and male mice. As a comparison, a mixture of three tracers ([3H]CHE, [14C]CO and DiD) (not formulated as a nano-emulsion) was injected in order to observe the distribution of the tracers in the absence of droplets being used as a distribution carrier.
Tables 6 to 14 provide the biodistribution results of each tracer ([3H]CHE, [14C]CO and DiD) expressed as a percentage of the dose injected per gram of tissue (or [3H]CHE and [14C]CO) or as fluorescence intensity (for DiD) depending on the organ of the mouse, 15 minutes (Table 6), 2 hours (Table 7), 4 hours (Table 8), 6 hours (Table 9), 16 hours (Table 10), 24 hours (Table 11), 72 hours (Table 12), 120 hours (Table 13) and 168 hours (Table 14), after injection into an FVB female mouse of the nano-emulsion of Example 1.1. (nano-emulsion according to the invention comprising the three tracers ([3H]CHE, [14C]CO and DiD).

[1] = 24 h (Table 10 head) after injection of nano-emulsion of Example 1.1, FVB female mouse
[2] = 48 h (Table 11 head) after injection of nano-emulsion of Example 1.1, FVB female mouse
[3] = 72 h after injection of nano-emulsion of Example 1.1, FVB female mouse
[4] = 120 h after injection of nano-emulsion of Example 1.1, FVB female mouse
[5] = 168 h after injection of nano-emulsion of Example 1.1, FVB female mouse

## CCCCCCCCCCCCCCCCO[C@H]1CC[C@@]2(C)C(=CC[C@H]3[C@@H]4CC[C@H]([C@H](C)CCCC(C)C)[C@@]4(C)CC[C@@H]32)C1 [[3H]CHE, cholesteryl hexadecylether]
[1]
  biodistribution, Lung (MEAN): 3.21 % of injected dose per gram of
  biodistribution, Muscle (MEAN): 0.46 % of injected dose per gram of
  biodistribution, Ovary (MEAN): 38.06 % of injected dose per gram of
  biodistribution, Pancreas (MEAN): 0.64 % of injected dose per gram of
  biodistribution, Salivary glands (MEAN): 1.40 % of injected dose per gram of
  biodistribution, Spleen (MEAN): 7.50 % of injected dose per gram of
  biodistribution, Uterus (MEAN): 1.82 % of injected dose per gram of
[2]
  biodistribution, Adrenal glands (MEAN): 42.26 % of injected dose per gram of
  biodistribution, Brain (MEAN): 0.08 % of injected dose per gram of
  biodistribution, Fat (MEAN): 1.05 % of injected dose per gram of
  biodistribution, Heart (MEAN): 3.52 % of injected dose per gram of
  biodistribution, Intestine (MEAN): 4.43 % of injected dose per gram of
  biodistribution, Kidney (MEAN): 1.63 % of injected dose per gram of
  biodistribution, Liver (MEAN): 58.43 % of injected dose per gram of
  biodistribution, Lungs (MEAN): 3.91 % of injected dose per gram of
  biodistribution, Muscle (MEAN): 0.36 % of injected dose per gram of
  biodistribution, Ovary (MEAN): 36.42 % of injected dose per gram of
  biodistribution, Pancreas (MEAN): 1.00 % of injected dose per gram of
  biodistribution, Salivary glands (MEAN): 1.09 % of injected dose per gram of
  biodistribution, Spleen (MEAN): 12.32 % of injected dose per gram of
  biodistribution, Uterus (MEAN): 3.75 % of injected dose per gram of
[3]
  biodistribution, Adrenal glands (MEAN): 36.92 % of injected dose per gram of
  biodistribution, Brain (MEAN): 0.08 % of injected dose per gram of
  biodistribution, Fat (MEAN): 0.85 % of injected dose per gram of
  biodistribution, Heart (MEAN): 2.98 % of injected dose per gram of
  biodistribution, Intestine (MEAN): 3.58 % of injected dose per gram of
  biodistribution, Kidney (MEAN): 1.27 % of injected dose per gram of
  biodistribution, Liver (MEAN): 39.73 % of injected dose per gram of
  biodistribution, Lungs (MEAN): 2.95 % of injected dose per gram of
  biodistribution, Muscle (MEAN): 0.22 % of injected dose per gram of
  biodistribution, Ovary (MEAN): 25.11 % of injected dose per gram of
  biodistribution, Pancreas (MEAN): 0.74 % of injected dose per gram of
  biodistribution, Salivary glands (MEAN): 1.10 % of injected dose per gram of
  biodistribution, Spleen (MEAN): 7.65 % of injected dose per gram of
  biodistribution, Uterus (MEAN): 5.63 % of injected dose per gram of
[4]
  biodistribution, Adrenal gland (MEAN): 41.92 % of injected dose per gram of
  biodistribution, Brain (MEAN): 0.08 % of injected dose per gram of
  biodistribution, Fat (MEAN): 0.68 % of injected dose per gram of
  biodistribution, Heart (MEAN): 2.59 % of injected dose per gram of
  biodistribution, Intestine (MEAN): 3.60 % of injected dose per gram of
  biodistribution, Kidney (MEAN): 1.29 % of injected dose per gram of
  biodistribution, Liver (MEAN): 39.13 % of injected dose per gram of
  biodistribution, Lungs (MEAN): 3.30 % of injected dose per gram of
  biodistribution, Muscle (MEAN): 0.27 % of injected dose per gram of
  biodistribution, Ovary (MEAN): 16.92 % of injected dose per gram of
  biodistribution, Pancreas (MEAN): 1.00 % of injected dose per gram of
  biodistribution, Salivary glands (MEAN): 2.14 % of injected dose per gram of
  biodistribution, Spleen (MEAN): 9.69 % of injected dose per gram of
  biodistribution, Uterus (MEAN): 4.99 % of injected dose per gram of
[5]
  biodistribution, Adrenal glands (MEAN): 29.30 % of injected dose per gram of
  biodistribution, Brain (MEAN): 0.07 % of injected dose per gram of
  biodistribution, Fat (MEAN): 0.99 % of injected dose per gram of
  biodistribution, Heart (MEAN): 2.19 % of injected dose per gram of
  biodistribution, Intestine (MEAN): 2.80 % of injected dose per gram of
  biodistribution, Kidneys (MEAN): 1.44 % of injected dose per gram of
  biodistribution, Liver (MEAN): 32.70 % of injected dose per gram of
  biodistribution, Lungs (MEAN): 1.70 % of injected dose per gram of
  biodistribution, Muscle (MEAN): 0.37 % of injected dose per gram of
  biodistribution, Ovary (MEAN): 20.61 % of injected dose per gram of
  biodistribution, Pancreas (MEAN): 0.79 % of injected dose per gram of
  biodistribution, Salivary glands (MEAN): 2.01 % of injected dose per gram of
  biodistribution, Spleen (MEAN): 10.71 % of injected dose per gram of
  biodistribution, Uterus (MEAN): 4.86 % of injected dose per gram of
